The text below walks through data of patent publication US5338725A, “Anti-aggregatory agents for platelets” (The Research Foundation of the State University of New York, priority 1992, dated 1994).

Starred links: 1 amine or outer side, 2 acyl side, 3 side chain; linkers in the order of their positions; H or OH if unused. Positions of bridges follow the written chain, without caps; N, C: chain ends. Residues, ends and D or L forms follow the SMILES beside them. Chains are numbered I, II in the order given. X2 = O=C(O)CNC(=O)c1cc(N[*:1])cc(N[*:2])c1

Chain of human platelet-rich plasma (P08514 32-1039): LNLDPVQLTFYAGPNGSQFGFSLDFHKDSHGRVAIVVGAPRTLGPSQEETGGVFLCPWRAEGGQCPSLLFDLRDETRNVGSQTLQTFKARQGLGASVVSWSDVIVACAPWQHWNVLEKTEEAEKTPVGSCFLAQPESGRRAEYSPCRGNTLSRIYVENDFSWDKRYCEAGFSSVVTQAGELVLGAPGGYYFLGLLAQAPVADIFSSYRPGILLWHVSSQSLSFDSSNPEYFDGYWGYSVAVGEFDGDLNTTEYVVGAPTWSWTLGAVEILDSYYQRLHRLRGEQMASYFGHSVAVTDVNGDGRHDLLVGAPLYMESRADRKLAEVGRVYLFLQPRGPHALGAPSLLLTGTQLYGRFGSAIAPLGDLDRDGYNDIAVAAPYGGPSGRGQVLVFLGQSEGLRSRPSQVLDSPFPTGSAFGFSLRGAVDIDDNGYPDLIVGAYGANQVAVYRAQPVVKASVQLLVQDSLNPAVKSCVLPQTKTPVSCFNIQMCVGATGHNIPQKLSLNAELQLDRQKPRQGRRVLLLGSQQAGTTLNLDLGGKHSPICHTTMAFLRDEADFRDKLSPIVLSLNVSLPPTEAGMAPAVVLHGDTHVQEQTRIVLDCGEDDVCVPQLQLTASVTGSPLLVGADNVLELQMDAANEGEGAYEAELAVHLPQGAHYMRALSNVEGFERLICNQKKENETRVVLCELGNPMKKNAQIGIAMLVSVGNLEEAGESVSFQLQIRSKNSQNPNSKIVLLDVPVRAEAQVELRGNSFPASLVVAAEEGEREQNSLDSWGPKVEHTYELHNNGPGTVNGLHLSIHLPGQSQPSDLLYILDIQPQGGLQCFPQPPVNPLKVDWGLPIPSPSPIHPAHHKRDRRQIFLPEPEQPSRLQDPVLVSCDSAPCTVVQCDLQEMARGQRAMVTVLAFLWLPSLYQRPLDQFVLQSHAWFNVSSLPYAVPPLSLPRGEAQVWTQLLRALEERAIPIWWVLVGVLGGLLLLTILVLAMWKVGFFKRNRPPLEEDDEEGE
Chain of human platelet-rich plasma (P05106 27-788): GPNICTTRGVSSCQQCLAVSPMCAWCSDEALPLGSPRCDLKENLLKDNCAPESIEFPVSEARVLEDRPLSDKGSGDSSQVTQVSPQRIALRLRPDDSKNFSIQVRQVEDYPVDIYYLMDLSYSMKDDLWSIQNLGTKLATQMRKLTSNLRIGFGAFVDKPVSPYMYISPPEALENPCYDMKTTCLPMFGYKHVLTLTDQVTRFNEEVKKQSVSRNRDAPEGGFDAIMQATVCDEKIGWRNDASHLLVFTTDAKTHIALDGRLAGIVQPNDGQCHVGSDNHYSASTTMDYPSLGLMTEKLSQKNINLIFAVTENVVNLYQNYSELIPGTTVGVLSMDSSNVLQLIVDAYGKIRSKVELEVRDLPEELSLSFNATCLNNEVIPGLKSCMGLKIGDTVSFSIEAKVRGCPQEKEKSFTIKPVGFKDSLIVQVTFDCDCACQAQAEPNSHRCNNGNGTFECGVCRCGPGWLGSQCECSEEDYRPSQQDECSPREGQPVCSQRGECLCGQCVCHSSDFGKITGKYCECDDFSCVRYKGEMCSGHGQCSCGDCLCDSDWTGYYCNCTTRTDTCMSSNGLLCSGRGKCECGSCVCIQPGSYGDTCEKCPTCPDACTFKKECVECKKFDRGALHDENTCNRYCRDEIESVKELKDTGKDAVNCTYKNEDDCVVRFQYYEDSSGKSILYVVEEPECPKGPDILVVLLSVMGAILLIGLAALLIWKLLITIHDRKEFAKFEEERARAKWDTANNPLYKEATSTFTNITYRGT

The target of the experiment is human platelet-rich plasma (Homo sapiens, UniProt P05106+P08514). The experiment is described as follows: In vitro inhibition of ADP-induced aggregation of human platelet-rich plasma (Coller assay). The experiment is classed as cell-based. The note with it: adjusted for fibrinogen concentration (ca. 30 times lower than Coller assay value; 0.1 mg/mL fibrinogen). The procedure:
1. In vitro Inhibition of Aggregation of Human Platelet-Rich Plasma
Whole blood (10 ml) was collected from human volunteers and anticoagulated by addition of […] of 40% sodium citrate. Platelet-rich plasma (PRP) was prepared by low speed centrifugation (700 G for 3.5 min at 22° C.). The PRP was removed and the remaining blood was centrifuged at 2000 G for 10 min at 22 ° C. to obtain platelet poor plasma (PPP). The PRP was diluted with PPP to give a final platelet count of 300 000μL with a Coulter Acounter Model ZM (Coulter, Hialeah, Fla.). This diluted PRP (400μL) was placed in a siliconized glass cuvette equipped with a magnetic stirrer and stirred at 1200 rpm at 37° C. Various concentrations of the peptides (36μL) in TRIS buffer (0.01 M TRIS, 0.15 M NaCl, and 0.05% sodium azide, pH 7.4) was added and incubated for 3 rain before platelet aggregation was induced by addition of 54μL of 100μM ADP in HEPES buffer (0.01 M HEPES and 0.15 M NaCl, pH 7.5). The platelet aggregation was determined by a change in light transmission through the PRP on a Lumi Aggregometer 400rS (ChronoLog, Hayertown, PA). The ability of the peptides to inhibit platelet aggregation was evaluated and the IC50 was determined as the concentration of peptide required to produce 50% inhibition of the response to ADP in the presence of the TRIS buffer.
The assay system developed by Coller, which is used throughout the experiment, is different from conventional assay systems in certain aspects. First, the platelets used by Plow et al., Blood, 70, 110 (1987); and Garsky et al., Proc. Natl. Acad. Sci. U.S.A., 86, 4022 (1989) are gel-filtered to remove plasma proteins. Since the gel-filtration treatment may decrease the reactivity of the platelets, our assay avoids this step. The platelet count is adjusted by simply mixing PRP and PPP, which minimizes alterations of the platelets. Second, fibrinogen concentration in the Coller system is different from that of others. As shown in the experimental description of the assay, PRP was obtained from fresh blood and used immediately without further manipulation except for count adjustment. According to measurements obtained using this assay, such plasma contains ca. 3 mg of fibrinogen per 1 mL of plasma. On the other hand, fibrinogen concentration used in the Garsky and Plow assay system is 0.1 mg/mL. The concentration of fibrinogen affects the amount of RGD peptide required to inhibit platelet aggregation, with higher fibrinogen concentrations resulting in higher IC50 values. If there is a linear relationship between these two parameters, the IC50 values obtained from the Coller assay should be ca. 30 times larger than those obtained from the Plow et al. assay or the Garsky et al. assay. The adjusted IC50 values are presented in column 4 of Table showing the inhibitory activities of RGD peptides.
The following peptides were synthesized, and their amino acid contents were analyzed as described in procedures 3-7, above. In addition, their ability to inhibit aggregation of human platelet rich plasma was assessed as described in procedures 1 and 2, above. Their respective IC50 values, as well as their estimated IC50 adjusted to the values according the method of Plow et al., (vide supra) are listed in Table 1.
Regarding `N=C(N)NCCC[C@H](N)C(=O)NCC(=O)N[C@@H](CC(=O)O)C(=O)N[C@@H](Cc1ccccc1)C(=O)N1CCC[C@H]1C(=O)NCC(=O)Nc1cc(NC(=O)CNC(=O)[C@@H]2CCCN2C(=O)[C@H](Cc2ccccc2)NC(=O)[C@H](CC(=O)O)NC(=O)CNC(=O)[C@@H](N)CCCNC(=N)N)cc(C(=O)NCC(=O)O)c1` [Example 1, (RGDFPG)2 Dab--G--OH] (I: H-RGDFPG / II: H-RGDFPG; linker I:C-II:C via X2; N-terminus assumed), the “IC50 (M)* Estimated IC50 adjusted to the values by the method of Plow et al.” value (“IC50 (M)* Estimated IC50 adjusted” for short) was 6.7e-07 M. Regarding `N=C(N)NCCC[C@H](NC(=O)CN)C(=O)NCC(=O)N[C@@H](CC(=O)O)C(=O)N[C@@H](Cc1ccccc1)C(=O)NCC(=O)Nc1cc(NC(=O)CNC(=O)[C@H](Cc2ccccc2)NC(=O)[C@H](CC(=O)O)NC(=O)CNC(=O)[C@H](CCCNC(=N)N)NC(=O)CN)cc(C(=O)NCC(=O)N[C@@H](CCCNC(=N)N)C(=O)NCC(=O)N[C@@H](CC(=O)O)C(=O)N[C@@H](Cc2ccccc2)C(N)=O)c1` [Example 15, (GRGDFG)2 Dab--GRGDF--NH2], the “IC50 (M)* Estimated IC50 adjusted” value was 1.1e-06 M. For `N=C(N)NCCC[C@H](NC(=O)CN)C(=O)NCC(=O)N[C@@H](CC(=O)O)C(=O)N[C@@H](Cc1ccccc1)C(=O)NCCCC[C@H](NC(=O)[C@H](Cc1ccccc1)NC(=O)[C@H](CC(=O)O)NC(=O)CNC(=O)[C@H](CCCNC(=N)N)NC(=O)CN)C(=O)NCC(=O)N[C@@H](CCCNC(=N)N)C(=O)NCC(=O)N[C@@H](CC(=O)O)C(=O)N[C@@H](Cc1ccccc1)C(N)=O` [Example 17, (GRGDF)2 Lys--GRGDF--NH2], the “IC50 (M)* Estimated IC50 adjusted” value was 1.7e-06 M.
